What was measured:
Type in all cases: in vivo
Wistar rat [1] = assay: Object recognition in the Wistar rat; details: 30 minutes before each session, 24 hours between sessions
From the text: Object Recognition in the Wistar Rat
The object recognition test in the Wistar rat was initially developed by ENNACEUR and DELACOUR (Behav. Brain Res., 1988, 31, 47-59). The test is based on the spontaneous exploratory activity of the animal and has he characteristics of episodic memory in humans. This memory test is sensitive to ageing (SCALI et al., Eur. J. Pharmacol., 1997, 325, 173-180) and to cholinergic dysfunctions (BARTOLINI et al., Pharm. Biochem. Behav. 1996, 53(2), 277-283) and is based on the differences in the exploration of 2 objects of fairly similar shape—one familiar, the other new. Prior to the test, the animals are habituated to the environment (an enclosure without an object). In the course of a first session, the rats are placed (3 minutes) in the enclosure, in which there are 2 identical objects. The duration of exploration is measured for each object. In the course of the second session (3 minutes), 24 hours later, 1 of the 2 objects is replaced by a new object. The duration of exploration is measured for each object. The assessment criterion is the difference, Delta, expressed in seconds, between the exploration times for the new object and for the familiar object in the course of the second session.
The Table hereinbelow gives the difference, Delta, expressed in seconds, between the exploration times of the 2 objects.

Wistar rat [2] = assay: Social recognition in the Wistar rat; details: intraperitoneal route, dose 3 mg/kg, second encounter after 2 hours
From the text: Social Recognition in the Wistar Rat
Initially described in 1982 by THOR and HOLLOWAY, (J. Comp. Physiol., 1982, 96, 1000-1006), the social recognition test has subsequently been proposed by various authors (DANTZER et al., Psychopharmacology, 1987, 91, 363-368; PERIO et al., Psycho-pharmacology, 1989, 97, 262-268) for studying the mnemocognitive effects of new compounds. The test is based on the natural expression of the olfactory memory of the rat and its natural tendency to forget and allows evaluation of memorisation, by recognition of a young congeneric animal, by an adult rat. A young rat (21 days), taken at random, is placed for 5 minutes in the cage housing an adult rat. With the aid of a video device, the experimenter observes the social recognition behaviour of the adult rat and measures its overall duration. The young rat is then removed from the adult rat's cage and is placed in its own cage until the second introduction. The adult rat is given the compound under test by intraperitoneal route and, after 2 hours, is again brought into the presence (5 minutes) of the young rat. The social recognition behaviour is then observed again and its duration measured.
The Table hereinbelow gives the difference (T2—T1), expressed in seconds, between the “recognition” times of the 2 encounters.

NMRI mouse = assay: Abdominal contractions induced by phenyl-p-benzoquinone (PBQ) in the NMRI mouse; details: IP, PBQ at t=30 min, cramps counted t=35-45 min
Description: Abdominal Contractions Induced by Phenyl-p-Benzoquinone (PBQ) in the NMRI Mouse
Intraperitoneal administration of an alcoholic solution of PBQ causes abdominal cramps in the mouse (SIEGNUND et al., Proc. Soc. Exp. Biol., 1957, 95, 729-731). The cramps are characterized by repeated contractions of the abdominal musculature, accompanied by extension of the hind limbs. Most analgesics antagonise these abdominal cramps (COLLIER et al., Brit. J. Pharmacol. Chem., 1968, 32, 295-310). At t=0 min., the animals are weight and the compound being studied is administered by the IP route. A group of contol animals is given the solvent used for the compound. At t=30 min., an alcoholic solution of PBQ (0.2%) is administered by the IP route in a volume of 0.25 ml/mouse. Immediately after administration of the PBQ, the animals are placed in cylinders of plexiglass (L=19.5 cm; I.D.=5 cm). From t=35 min. to t=45 min., the animals' reaction is observed and the experimenter notes the total number of abdominal cramps per animal. The Table hereinbelow gives the percentage inhibition of the number of abdominal cramps measured in the control animals, at the active dose of the compound studied.

## CC1=CC(=O)C[C@@H](c2cccc(Cl)c2)N1 [Example 18, (2S)-2-(3-Chlorophenyl)-6-methyl-2,3-dihydro-4-(1H)-pyridinone]
Wistar rat [1]; dose 1 mg/kg, p.o.
  Delta (s), difference between exploration times for new and familiar object: 6.2 s

## CC1=CC(=O)CC(c2cccc(Cl)c2)N1 (racemic) [Example 1, (±)-2-(3-Chlorophenyl)-6-methyl-2,3-dihydro-4(1H)-pyridinone]
Wistar rat [1]; dose 0.3 mg/kg, i.p.
  Delta (s), difference between exploration times for new and familiar object: 7.5 s
Wistar rat [1]; dose 0.3 mg/kg, p.o.
  Delta (s), difference between exploration times for new and familiar object: 9.95 s
Wistar rat [2]
  T2 − T1 (s), difference between the recognition times of the 2 encounters: -36 s
NMRI mouse; dose 10 mg/kg
  Inhibition (%) of the number of abdominal cramps: 51%

## CC1=CC(=O)CC(c2ccc(Cl)cc2)N1 (racemic) [Example 24, (±)-2-(4-Chlorophenyl)-6-methyl-2,3-dihydro-4(1H)-pyridinone]
Wistar rat [1]; dose 3 mg/kg, i.p.
  Delta (s), difference between exploration times for new and familiar object: 7.55 s
Wistar rat [2]
  T2 − T1 (s), difference between the recognition times of the 2 encounters: -32 s

## C[C@@H]1C[C@H](O)C[C@H](c2ccccc2)N1.Cl (relative stereo) [Example 21, (2R*,4S*,6R*)-2-Phenyl-6-methyl-4-piperidinol hydrochloride]
Wistar rat [2]
  T2 − T1 (s), difference between the recognition times of the 2 encounters: -33 s

## CC1=CC(=O)CC(c2ccsc2)N1 (racemic) [Example 30, (±)-6-Methyl-2-(3-thienyl)-2,3-dihydro-4(1H)-pyridinone]
NMRI mouse; dose 20 mg/kg
  Inhibition (%) of the number of abdominal cramps: 51%

## CC1=CC(=O)CC(c2ccc(Cl)cc2)CN1 (racemic) [Example 25, (±)-6-(4-Chlorophenyl)-2-methyl-1,5,6,7-tetrahydro-4H-azepin-4-one]
NMRI mouse; dose 20 mg/kg
  Inhibition (%) of the number of abdominal cramps: 69%

## C[C@@H]1C[C@H](O)C[C@H](c2ccccc2)N1.O=C(O)C(=O)O (relative stereo) [Example 22, (2R*,4S*,6R*)-2-Phenyl-6-methyl-4-piperidinol oxalate]
Wistar rat [1]; dose 0.3 mg/kg, i.p.
  Delta (s), difference between exploration times for new and familiar object: 9.98 s
Wistar rat [1]; dose 3 mg/kg, p.o.
  Delta (s), difference between exploration times for new and familiar object: 5.93 s

## COc1cccc(C2CC(=O)C=C(C)N2)c1 (racemic) [Example 27, (±)-2-(3-Methoxyphenyl)-6-methyl-2,3-dihydro-4(1H)-pyridinone]
Wistar rat [1]; dose 3 mg/kg, i.p.
  Delta (s), difference between exploration times for new and familiar object: 6.68 s

## CC1=CC(=O)CC(c2ccc(Cl)c(Cl)c2)N1 (racemic) [Example 26, (±)-2-(3,4-Dichlorophenyl)-6-methyl-2,3-dihydro-4(1H)-pyridinone]
NMRI mouse; dose 10 mg/kg
  Inhibition (%) of the number of abdominal cramps: 55%

## CC1=CC(=O)CC(c2cccnc2)N1 (racemic) [Example 36, (±)-6-Methyl-2-(3-pyridyl)-2,3-dihydro-4(1H)-pyridinone]
Wistar rat [2]
  T2 − T1 (s), difference between the recognition times of the 2 encounters: -36 s
